Measured values taken from the supplement of paper PMC4858399.

How the values were obtained:
[1] = system: Caenorhabditis elegans N2; assay: lowest effective concentration for larval growth inhibition (size below effect threshold); higher = less potent; conditions: exposure time 48 h
Summary of the method: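 Log-transformed well means of per-worm extinction, read as size on a Biosort, came from 50 C. elegans N2 L1 larvae per 96-well grown 48 h at 20°C in K-medium with killed bacteria, 1% DMSO and 0.5 to 200 µM chemical. The lowest effective concentration is the first dose at which the plate-adjusted mean size is below the threshold and stays below it at every higher dose. The threshold is 5.665.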

[2] = system: Caenorhabditis elegans N2; assay: mean nematode size ln(EXT) after 48 h, plate-adjusted (DMSO control set to 6) (ln(EXT), control-adjusted); higher = larger nematodes / less growth inhibition; conditions: exposure time 48 h
Summary of the method: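 Synchronised C. elegans N2 L1 larvae were grown for 48 h at 20°C in K-medium containing killed OP50, 1% DMSO and 0.5–200 µM chemical, at 50 per well and 4–6 wells per treatment. The Biosort recorded extinction for each worm, and a growth model removed debris. Worm size was obtained by natural-logging these values and averaging them per well. For plate adjustment, the vehicle control mean was subtracted and 6 was added.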

Structure (SMILES)	lowest effective concentration [1]	mean nematode size ln(EXT) (ln) ([2]; 0.5 µM)	mean nematode size ln(EXT) (ln) ([2]; 1 µM)	mean nematode size ln(EXT) (ln) ([2]; 5 µM)	mean nematode size ln(EXT) (ln) ([2]; 10 µM)	mean nematode size ln(EXT) (ln) ([2]; 50 µM)	mean nematode size ln(EXT) (ln) ([2]; 100 µM)	mean nematode size ln(EXT) (ln) ([2]; 200 µM)
N#CCCCCC#N [Hexanedinitrile]	> 200 µM	5.89	5.82	5.87	5.81	5.96	5.75	5.8
c1ccc2occc2c1 [2,3-Benzofuran]	> 200 µM	6.06	6.1	6.03	6.13	6.02	6.03	5.78
COC(=O)CCC(=O)OC [Dimethyl succinate]	> 200 µM	5.88	5.94	5.85	6.11	5.84	5.87	5.96
CCN(C(=O)c1cc(C)cc(OC[C@H](C)Nc2ccncc2)c1)C(C)C	> 200 µM	5.67	5.78	5.59	5.63	5.56	5.61	5.82
c1ccc2c(c1)Nc1ccccc1S2 [Phenothiazine]	> 200 µM	6.07	6.03	5.92	5.8	5.55	5.59	5.99
CCCCCCCCCCCCCCCCCC(=O)O [Stearic acid]	> 200 µM	6.02	5.96	6.03	5.96	5.87	5.85	5.91
O=[N+]([O-])c1ccc(O)cc1 [Sodium p-nitrophenolate]	> 200 µM	5.95	5.97	5.92	5.98	6.15	5.81	5.87
O=C(OCCOCCOC(=O)c1ccccc1)c1ccccc1 [Di(ethylene glycol) dibenzoate]	200 µM	5.89	5.82	5.77	5.76	5.71	5.79	5.66
COc1ccc(-c2ccccc2)cc1NNC(=O)OC(C)C [Bifenazate]	> 200 µM	5.62	5.82	5.8	5.93	5.25	5.68	5.87
N#Cc1cc(Br)c(O)c(Br)c1 [Bromoxynil]	> 200 µM	5.85	5.95	5.86	5.91	5.84	5.95	5.67
CC(CO)OC(C)CO.CC(O)COCC(C)O (stereo unspecified) [Dipropylene glycol]	> 200 µM	5.74	5.73	5.79	5.87	5.74	5.66	5.87
COc1cc(S(=O)(=O)O)c(C)cc1N=Nc1c(O)ccc2cc(S(=O)(=O)O)ccc12 [Allura red]	> 200 µM	5.71	5.75	5.76	5.79	5.72	5.67	5.86
O=C1CCCCCN1 [Caprolactam]	> 200 µM	5.8	5.81	5.84	5.87	5.88	5.55	5.68
CC1(C)C(=O)NC(=O)N1CO [1-(Hydroxymethyl)-5,5-dimethylhydantoin]	> 200 µM	5.87	6.04	5.96	5.91	5.91	5.85	5.69
Cc1ccc([N+](=O)[O-])cc1N [2-Methyl-5-nitroaniline]	50 µM	5.93	5.42	5.81	5.9	5.13	5.58	5.66
COc1cc(C=O)ccc1O [4-Hydroxy-3-methoxy-benzaldehyde]	> 200 µM	5.83	5.83	5.77	5.77	5.69	5.84	5.8
CCC(C)c1ccccc1O (stereo unspecified) [2-(Butan-2-yl)phenol]	> 200 µM	5.9	5.85	5.89	5.94	5.86	5.82	5.7
COP(N)(=O)SC (stereo unspecified) [Methamidophos]	> 200 µM	5.74	5.85	5.85	5.88	5.89	5.93	5.87
CNC(=O)Oc1cccc2ccccc12 [Carbaryl]	> 200 µM	5.78	5.79	5.6	5.71	5.83	5.72	5.67
CN(Cc1cnc2nc(N)nc(N)c2n1)c1ccc(C(=O)N[C@@H](CCC(=O)O)C(=O)O)cc1 [Methotrexate]	> 200 µM	5.83	5.86	5.81	5.85	5.84	5.82	5.75
COS(C)(=O)=O [Methyl methanesulfonate]	> 200 µM	5.92	5.9	5.9	5.87	5.81	5.52	5.89
COCCO [Methyl cellusolve]	> 200 µM	5.86	5.94	6.08	6.07	5.99	6.03	6.06
COCC(C)OCC(C)OCC(C)O (stereo unspecified) [Tripropylene glycol monomethyl ether]	> 200 µM	5.71	6.01	5.88	5.89	5.91	5.9	5.72
ClC1C(Cl)C(Cl)C(Cl)C(Cl)C1Cl (stereo not drawn) [beta-1,2,3,4,5,6-Hexachlorocyclohexane]	> 200 µM	5.52	5.63	5.65	5.7	5.74	5.75	5.87
NCCO [Ethanolamine]	> 200 µM	5.86	5.87	5.79	5.73	5.75	5.76	5.76
CC(=O)OCCC(C)C [Isoamyl acetate]	> 200 µM	5.95	5.84	5.89	5.79	5.86	5.83	5.75
C[N+](C)(C)CC1CO1 (stereo unspecified) [Oxiranemethanaminium, N,N,N-trimethyl-, chloride]	200 µM	5.78	5.84	5.81	5.54	5.83	5.84	5.66
